From ChEMBL document CHEMBL1155770, “New guinea pig model of Cryptococcal meningitis” (2007) come the findings set out here.

In test [1] the test system is Cryptococcus neoformans. Description: Antimicrobial activity against Cryptococcus neoformans USC1597 isolate after 72 hrs. Type of test: functional.
Test [2] relates to Cryptococcus neoformans. The test is described as follows: Antimicrobial activity against 9 x 10^6 CFU Cryptococcus neoformans USC1597 isolate intracranially infected in Hartley guinea pig assessed as kidney […] count per gram at 10 mg/kg, po BID administered 48 hrs postinfection for 13 days. The format is functional.
The subject of test [3] is Cryptococcus neoformans. The test is described as follows: Antimicrobial activity against 10^7 CFU Cryptococcus neoformans USC1597 isolate intracranially infected in Hartley guinea pig assessed as decrease in kidney […] count at 10 mg/kg, po BID administered 48 hrs postinfection for 13 days. The format is functional, organism-based. Also noted: dose 10 mg/kg. To be noted: […].

In test [4] the test system is Cryptococcus neoformans. Description: Antimicrobial activity against 9 x 10^6 CFU Cryptococcus neoformans USC1597 isolate intracranially infected in Hartley guinea pig assessed as brain […] count per gram at 10 mg/kg, po BID administered 48 hrs postinfection for 13 days. The format is functional.
The subject of test [5] is Cryptococcus neoformans. Description: Antimicrobial activity against 10^7 CFU Cryptococcus neoformans USC1597 isolate intracranially infected in Hartley guinea pig assessed as decrease in cerebrospinal fluid […] count per ml at 10 mg/kg, po BID administered 48 hrs postinfection for 13 days. The format is functional.
For test [6], the system named is Cryptococcus neoformans. Description: Antimicrobial activity against 9 x 10^6 CFU Cryptococcus neoformans USC1597 isolate intracranially infected in Hartley guinea pig assessed as cerebrospinal fluid […] count per ml at 10 mg/kg, po BID administered 48 hrs postinfection for 13 days. Type of test: functional.
Test [7] relates to Cryptococcus neoformans. The test is described as follows: Antimicrobial activity against 10^7 CFU Cryptococcus neoformans USC1597 isolate intracranially infected in Hartley guinea pig assessed as decrease in brain […] count at 10 mg/kg, po BID administered 48 hrs postinfection for 13 days. Type of test: functional.
For test [8], the system named is Cryptococcus neoformans. The test is described as follows: Antimicrobial activity against 10^7 CFU Cryptococcus neoformans USC1597 isolate intracranially infected in Hartley guinea pig assessed as decrease in cerebrospinal fluid […] count at 20 mg/kg, po BID administered 48 hrs postinfection for 13 days. The format is functional.
The subject of test [9] is Cryptococcus neoformans. Description: Antimicrobial activity against 9 x 10^6 CFU Cryptococcus neoformans USC1597 isolate intracranially infected in Hartley guinea pig assessed as brain […] count per gram at 5 mg/kg, po BID administered 48 hrs postinfection for 13 days. The format is functional.
Test [10] concerns Cryptococcus neoformans. The test is described as follows: Antimicrobial activity against 9 x 10^6 CFU Cryptococcus neoformans USC1597 isolate intracranially infected in Hartley guinea pig assessed as cerebrospinal fluid […] count per ml at 5 mg/kg, po BID administered 48 hrs postinfection for 13 days. Type of test: functional.
The subject of test [11] is Cryptococcus neoformans. The test is described as follows: Antimicrobial activity against 10^7 CFU Cryptococcus neoformans USC1597 isolate intracranially infected in Hartley guinea pig assessed as decrease in brain […] count at 5 mg/kg, po BID administered 48 hrs postinfection for 13 days. The format is functional.
Test [12] has as its system Cryptococcus neoformans. Description: Antimicrobial activity against 10^7 CFU Cryptococcus neoformans USC1597 isolate intracranially infected in Hartley guinea pig assessed as decrease in cerebrospinal fluid […] count at 5 mg/kg, po BID administered 48 hrs postinfection for 13 days. The format is functional.
The subject of test [13] is Cryptococcus neoformans. The test is described as follows: Antimicrobial activity against 9 x 10^6 CFU Cryptococcus neoformans USC1597 isolate intracranially infected in Hartley guinea pig assessed as kidney […] count per gram at 5 mg/kg, po BID administered 48 hrs postinfection for 13 days. Type of test: functional.
The test system of test [14] is Cryptococcus neoformans. The test is described as follows: Antimicrobial activity against 10^7 CFU Cryptococcus neoformans USC1597 isolate intracranially infected in Hartley guinea pig assessed as decrease in brain […] count at 20 mg/kg, po BID administered 48 hrs postinfection for 13 days. The format is functional.

Structures are written as SMILES. ≈ marks a conversion by molar mass, not a printed value. Calls of active or inactive are those of the source. The rule behind the calls is not given here.

`C[C@@H]1[C@H](O)[C@@H](C)/C=C/C=C/C=C/C=C/C=C/C=C/C=C/[C@H](O[C@@H]2O[C@H](C)[C@@H](O)[C@H](N)[C@@H]2O)C[C@@H]2O[C@](O)(C[C@@H](O)C[C@@H](O)[C@H](O)CC[C@@H](O)C[C@@H](O)CC(=O)O[C@H]1C)C[C@H](O)[C@H]2C(=O)O` [AMPHOTERICIN B]: in the test with Cryptococcus neoformans [1], the MIC (as a rule, the lowest concentration that inhibits growth of the organism) worked out at 0.25 µg/mL (≈ 0.271 µM).

As to `OC(Cn1cncn1)(Cn1cncn1)c1ccc(F)cc1F` [FLUCONAZOLE], the log10cfu stood at 2.43 in the test with Cryptococcus neoformans [2]; 5.25 with Cryptococcus neoformans [4]; 1 with Cryptococcus neoformans [5]; 3.18 in the test on Cryptococcus neoformans [6]; 2 in the test on Cryptococcus neoformans [7]. Moreover, the outcome in the test on Cryptococcus neoformans [3] was Active. Further, it took 1 µg/mL (≈ 3.27 µM) to inhibit growth against Cryptococcus neoformans [1] (MIC).

`C[C@@H](c1ncncc1F)[C@](O)(Cn1cncn1)c1ccc(F)cc1F` [VORICONAZOLE]: the log10cfu in the test on Cryptococcus neoformans [8] came to 1; in the test on Cryptococcus neoformans [9] it was 5.99; with Cryptococcus neoformans [5] it was 1.6; in the test with Cryptococcus neoformans [10], 4.11; in the test with Cryptococcus neoformans [11] it was 1; in the test on Cryptococcus neoformans [12] it was 0.7. Besides, the log10cfu in the test with Cryptococcus neoformans [13] stood at 3.01; in the test on Cryptococcus neoformans [14], 1.5; in the test with Cryptococcus neoformans [7], 1.5. For the same compound, inhibition of growth against Cryptococcus neoformans [1] (MIC) required 0.006 µg/mL (≈ 0.0172 µM).
